Test results as given in patent US8399502B2, “Analogs of indole-3-carbinol and their use as agents against infection” (priority 2008, dated 2013).
≈ marks a conversion by molar mass, not a printed value.

What was measured:
Assay in all cases: microbe, parasite or virus in culture
Assay type in all cases: cell-based
[1] = system: Yersinia pestis (YP; Gram-negative); conditions: read-out: MIC YP
[2] = system: Bacillus anthracis (BA; Gram-positive); conditions: read-out: MIC BA
[3] = system: Brucella abortus (BAB; Gram-negative); conditions: read-out: MIC BAB
[4] = system: Burkholderia pseudomallei (BP; Gram-negative); conditions: read-out: MIC BP
[5] = system: Burkholderia mallei (BM; Gram-negative); conditions: read-out: MIC BM
[6] = system: Francisella tularensis (FT; Gram-negative); conditions: read-out: MIC FT

| Structure (SMILES) | MIC [1] [µg/mL] | MIC [2] [µg/mL] | MIC [3] [µg/mL] | MIC [4] [µg/mL] | MIC [5] [µg/mL] | MIC [6] [µg/mL] |
| --- | --- | --- | --- | --- | --- | --- |
| N=C(N)NCCCOc1c2[nH]c3ccc(F)cc3c2cc2c1[nH]c1ccc(F)cc12 [drawing 232] | 8 (≈ 19.6 µM) | 0.5 (≈ 1.23 µM) | 0.25 (≈ 0.614 µM) | 4 (≈ 9.82 µM) | 2 (≈ 4.91 µM) | 1 (≈ 2.45 µM) |
| CC/N=C(/NCCCOc1c2[nH]c3ccc(F)cc3c2cc2c1[nH]c1ccc(F)cc12)NCCCN(C)C | 4 (≈ 7.68 µM) | ≤ 0.25 | 0.5 (≈ 0.96 µM) | 8 (≈ 15.4 µM) | 4 (≈ 7.68 µM) | ≤ 0.25 |
| Clc1ccc2[nH]c3c(OCC4CCCN4)c4[nH]c5ccc(Cl)cc5c4cc3c2c1 (stereo not drawn) | 1 (≈ 2.36 µM) | 1 (≈ 2.36 µM) | 0.5 (≈ 1.18 µM) | 8 (≈ 18.9 µM) | 4 (≈ 9.43 µM) | 0.5 (≈ 1.18 µM) |
| OC1CCN(CCCOc2c3[nH]c4ccc(Cl)cc4c3cc3c2[nH]c2ccc(Cl)cc23)CC1 [drawing 229] | 2 (≈ 4.15 µM) | 0.25 (≈ 0.518 µM) | 0.25 (≈ 0.518 µM) | > 8 | 8 (≈ 16.6 µM) | 0.25 (≈ 0.518 µM) |
| Clc1ccc2[nH]c3c(OCCCNC4CCNCC4)c4[nH]c5ccc(Cl)cc5c4cc3c2c1 | 2 (≈ 4.15 µM) | 1 (≈ 2.08 µM) | 1 (≈ 2.08 µM) | 8 (≈ 16.6 µM) | 4 (≈ 8.31 µM) | 1 (≈ 2.08 µM) |
| Fc1ccc2[nH]c3c(OC[C@H]4CCCN4)c4[nH]c5ccc(F)cc5c4cc3c2c1 | 2 (≈ 5.11 µM) | 0.5 (≈ 1.28 µM) | 0.5 (≈ 1.28 µM) | 8 (≈ 20.4 µM) | 8 (≈ 20.4 µM) | 0.5 (≈ 1.28 µM) |
| Fc1ccc2[nH]c3c(OC4CCNC4)c4[nH]c5ccc(F)cc5c4cc3c2c1 (stereo not drawn) | 1 (≈ 2.65 µM) | ≤ 0.25 | ≤ 0.25 | 4 (≈ 10.6 µM) | 2 (≈ 5.3 µM) | 0.5 (≈ 1.32 µM) |
| Cc1c2[nH]c3ccc(F)cc3c2cc2c1[nH]c1ccc(F)cc12 | > 16 | 0.5 (≈ 1.63 µM) | 1 (≈ 3.26 µM) | > 16 | > 16 | 0.5 (≈ 1.63 µM) |
| N[C@H]1CCN(CCCOc2c3[nH]c4ccc(Cl)cc4c3cc3c2[nH]c2ccc(Cl)cc23)C1 | 2 (≈ 4.28 µM) | 0.5 (≈ 1.07 µM) | 0.25 (≈ 0.535 µM) | > 8 | > 8 | 0.5 (≈ 1.07 µM) |
| Clc1ccc2[nH]c3c(OCC4CCNCC4)c4[nH]c5ccc(Cl)cc5c4cc3c2c1 | 2 (≈ 4.56 µM) | 0.5 (≈ 1.14 µM) | ≤ 0.25 | > 8 | 8 (≈ 18.2 µM) | 0.5 (≈ 1.14 µM) |
| Nc1nnn(CCCOc2c3[nH]c4ccc(Cl)cc4c3cc3c2[nH]c2ccc(Cl)cc23)n1 | > 8 | 0.5 (≈ 1.07 µM) | 1 (≈ 2.14 µM) | > 8 | > 8 | 1 (≈ 2.14 µM) |
| CN(C)CCOc1c2[nH]c3ccc(F)cc3c2c(Br)c2c1[nH]c1ccc(F)cc12 | > 8 | 0.25 (≈ 0.545 µM) | 0.25 (≈ 0.545 µM) | > 8 | > 8 | 0.25 (≈ 0.545 µM) |
| CN(C)CCOc1c2[nH]c3cc(F)ccc3c2cc2c1[nH]c1cc(F)ccc12 | > 8 | 1 (≈ 2.64 µM) | 0.5 (≈ 1.32 µM) | > 8 | > 8 | 0.5 (≈ 1.32 µM) |
| Fc1ccc2[nH]c3c(OCCN4CCCC4)c4[nH]c5ccc(F)cc5c4cc3c2c1 | 8 (≈ 19.7 µM) | 1 (≈ 2.47 µM) | 1 (≈ 2.47 µM) | > 16 | > 16 | 0.5 (≈ 1.23 µM) |
| N=C(N)NCCCOc1c2[nH]c3ccc(Cl)cc3c2cc2c1[nH]c1ccc(Cl)cc12 [drawing 217] | 1 (≈ 2.27 µM) | 0.25 (≈ 0.568 µM) | 0.25 (≈ 0.568 µM) | 2 (≈ 4.54 µM) | 1 (≈ 2.27 µM) | 0.25 (≈ 0.568 µM) |
| OC1CCN(CCCOc2c3[nH]c4ccc(F)cc4c3cc3c2[nH]c2ccc(F)cc23)C1 (stereo not drawn) | 8 (≈ 18.4 µM) | 0.5 (≈ 1.15 µM) | 0.251 (≈ 0.576 µM) | 8 (≈ 18.4 µM) | 8 (≈ 18.4 µM) | 0.5 (≈ 1.15 µM) |
| Clc1ccc2[nH]c3c(O[C@@H]4CCNC4)c4[nH]c5ccc(Cl)cc5c4cc3c2c1 | 1 (≈ 2.44 µM) | ≤ 0.25 | ≤ 0.25 | > 8 | 2 (≈ 4.87 µM) | ≤ 0.25 |
